| melting point | SMILES |
| --- | --- |
| 165 to 168 °C | COC(=O)c1ccc(S(C)(=O)=O)c(COC(C)=O)c1Cl |
| 126 to 127 °C | Nc1c(CCO)cccc1C(=O)c1ccc(Br)cc1 |
| 81 to 83 °C | CCOC(=O)c1ccc(OCC2CCN(C(=O)OC(C)(C)C)CC2)c(OC)c1 |
| 120 to 121 °C | COC(=O)COc1cc(Cl)c(SCc2cc(-c3ccc(C(F)(F)F)cc3)on2)cc1C |
| 141 to 143 °C | CCOC(=O)c1c(O)c2cc(Cl)ccc2n(C)c1=O |
| 278 to 280 °C | NS(=O)(=O)c1ccc(C#Cc2cnc3c(C(F)(F)F)cc(-c4ccc(C(F)(F)F)cc4)cn23)cc1 |
| 212 to 215 °C | O=C(CC1CC1)NC[C@H]1CN(c2ccc3c(c2)CCCc2cn[nH]c2-3)C(=O)O1 |
| 65 to 67 °C | CCc1cn(C[C@@H](C)O)c2ccc(F)cc12 |
| 192 to 193 °C | O=C(Nc1ccc(CN2CCOCC2)c2ccccc12)c1cc(F)cc(N2CCOCC2)c1 |
| 190 to 192 °C | CCCc1c(C(=O)NCc2ccc(-c3ccc(OCC(=O)O)cc3)cc2)cnn1-c1ccccc1 |
| 147 to 149 °C | O=C(NNS(=O)(=O)c1ccccc1)c1ccc(F)cc1Cl |
| 253 to 255 °C | Cc1cc2c(c(C(C)(C)C)c1)OC(=O)C2=C1C(=O)Oc2c1cc(C)cc2C(C)(C)C |
| 185 to 186 °C | CC1=C(C(=O)c2ccc(C#N)cc2)C(=O)C2C=CC=CC2C1=O (stereo not drawn) |
| < 20 °C | CCOC(=O)C(C)(C)Oc1ccc(-c2ccc(CCNC(=O)c3cccc(OC)c3OC)cc2)cc1 |
| 151 to 152 °C | O=C1Nc2ccccc2SC1CCBr (stereo not drawn) |
| 278 to 280 °C | O=C1NCc2c(cccc2Oc2ccccc2)N1 |
| 55.3 to 57.5 °C | O=CCOc1ccccc1OCC(F)(F)F |
| 97 to 99 °C | O[C@H]1CC[C@H](N(Cc2ccccc2)Cc2ccccc2)CC1 |
| 154 to 155 °C | NCCC(O)(c1ccc(Cl)cc1)c1ccc(-c2ccc(Br)cc2)cc1 (stereo not drawn) |
| 112 °C | CC(C)C[C@@H](C(=O)N[C@@H](C(C)C)[C@H](O)c1c(-c2ccccc2)c1=O)N(C)C(=O)OCc1ccccc1 |
| 270 °C | O=C(CN1CCC(Cc2ccccc2)CC1)Nc1ccc2[nH]c(=O)[nH]c2c1 |

| melting point | SMILES |
| --- | --- |
| 155 to 158 °C | C[C@H]1C=CC2=C[C@@H](O)C[C@H](OC(=O)C(C)(C)Oc3ccccc3)[C@@H]2[C@H]1CC[C@@H]1C[C@@H](O)CC(=O)O1 |
| 160 to 163 °C | CCCCC(O)CN1CCC2(CC1)CSC1=C(O2)c2ccccc2C(=O)C1=O (stereo not drawn) |
| 318 to 320 °C | N#Cc1ccc(-c2cccc(-c3nc4cc(C#N)ccc4[nH]3)c2O)cc1 |
| 150 to 152 °C | CCCn1nc2c(N)nc3ccccc3c2c1CCCC1=CCN(Cc2ccccc2)C1 |
| 202 to 205 °C | O=c1c2c(Br)cc(Br)cc2n(Cc2ccccc2)c(=O)n1Cc1ccccc1Cl |
| 156 to 158 °C | CC(C)OC(=O)c1cc(-n2c(=O)c3c(n(C)c2=O)CCS3)c(F)cc1Cl |
| 140 to 142 °C | COc1cc(Cl)c(N)c(C(=O)O)c1OC |
| 124 to 126 °C | CC(C)(S)C1COC(=O)N1 (stereo not drawn) |
| 190 to 191 °C | COc1ccc(Sc2cnc(NC(C)=O)s2)cc1 |
| 126 to 127 °C | O=C(O)Cc1cc(Cl)c2c(c1)CCC(c1ccccc1)N2 (stereo not drawn) |
| 207 to 210 °C | COc1ccc(CNC(=O)C(Cc2ccccc2)NC(=O)Nc2n[nH]c(=S)s2)cc1OC (stereo not drawn) |
| 163 °C | COC(=O)C1=C(C)NC(C)=C(C(=O)OCCN(C)Cc2ccccc2)C1c1cc([N+](=O)[O-])ccn1 (stereo not drawn) |
| 131 to 133 °C | O=c1oc(-c2ccccc2)cc(O)c1SCc1cccc(Oc2ccccc2)c1 |
| 149 to 150 °C | CCC(C)C[C@@H]1O[C@H](CC(=O)Nc2ccc(OC(F)(F)C(=O)O)cc2)C(=O)N(CC(C)(C)CO)c2ccc(Cl)cc21 (stereo partly drawn) |
| 81 to 83 °C | CCCCCCCCCCCCCCCC(=O)C1=C(O)COC1=O |
| 235 to 237 °C | CCC(=O)c1cc(C(=O)O)c2cc(Cc3ccc(F)cc3)cnc2c1O |
| 143 to 145 °C | O=C(NCc1ccc(F)c(F)c1)c1ccnc(N2CCN(Cc3ccccn3)C2=O)c1 |
| 103 to 105 °C | COc1ccc(NC(=O)c2coc(-c3ccncc3)c2)cc1N1CCN(C)CC1 |
| 242 to 244 °C | COc1ccc(C=C2SC(=S)N(CC(=O)O)C2=O)cc1-c1cc2c(cc1C)C(C)(C)CCC2(C)C |
| 209 to 211 °C | CCN[C@H]1CCN(c2c(-c3ccccc3)c(C)c(C#N)c3nc(C4CC4)oc23)C1 |
| 144 to 146 °C | Cn1cc(-c2cc3cccnc3[nH]2)c2cc(OC3(CO)CCC3)ccc21 |

| melting point | SMILES |
| --- | --- |
| 137 to 144 °C | CC(=CC(=O)N1CCCC1C(=O)O)C(=O)c1ccc(Br)cc1 (stereo not drawn) |
| 103 to 104 °C | O=C(/C=C/C=C(c1cccc(F)c1)c1cccc(F)c1)NCCCCc1cccnc1 |
| 147 °C | CC(C)(C)NCCCCOc1ccccc1C(=O)Nc1cccc2[nH]ccc12 |
| 159 to 162 °C | CC(=O)Nc1cccc(CNc2nc(Nc3cccc(NS(C)(=O)=O)c3)nc3[nH]cnc23)c1 |
| 130 °C | CCCn1c(=O)c2c(nc(C=O)n2C)n(CCC)c1=O |
| 80 to 83 °C | CC[C@@]12C[C@H](O)[C@](O)(c3c(F)cccc3F)C[C@H]1CCc1cc(OCc3cccnc3C)ccc12 |
| 186 to 187 °C | Fc1ccc(Oc2nccc(-c3c(-c4ccc(F)cc4)ncn3C3CCNCC3)n2)cc1 |
| 179 to 181 °C | COc1ccc(Nc2nc(-c3ccc4scnc4c3)cn3ccnc23)cc1OC |
| 155 to 157 °C | CCN(CC)c1nc2ccccc2n2c(C(F)(F)F)nnc12 |
| 143 to 145 °C | CCC1CCCCN1C(=O)C=Cc1c(-c2cccc(NC(=O)OC)c2)nn2ccccc12 (stereo not drawn) |
| 122 to 124 °C | COc1ccc2c3c1C(=O)CC3CCO2 (stereo not drawn) |
| 157 to 158 °C | CSc1ccc(-c2cc(C(F)F)nn2-c2ccc(S(N)(=O)=O)cc2)cc1 |
| 206 to 208 °C | CC(C)(C)Sc1c(CC(C)(C)C(=O)O)n(Cc2ccc(Cl)cc2)c2ccc(OCc3cccnc3)cc12 |
| 189 to 191 °C | COC(=O)c1ccc(I)c2c(=O)c3ccccc3[nH]c12 |
| 128 to 130 °C | C[C@H]([C@](O)(Cn1cncn1)c1ccc(F)cc1F)S(=O)(=O)N1CCN(c2ccc(F)cc2)CC1 |
| 104 to 105 °C | O=C(N1CCc2ccc(S(=O)(=O)Cl)cc2C1)C(F)(F)F |
| 206 °C | Clc1ccc(-c2c(-c3ccccc3)nn3ccccc23)nn1 |
| 184 to 186 °C | Cc1oc(-c2ccccc2)nc1CCOc1ccc(C[C@H](NCc2ccc(F)cc2)C(=O)O)cc1 |
| 202 to 204 °C | Cc1ccc(-c2c3ccccc3c(-c3ccc(C)cc3)c3cc(Cl)ccc23)cc1 |
| 141 to 143 °C | O=C(SCCC(=O)N1C(c2cccs2)SC[C@H]1C(=O)O)c1ccccc1 (stereo partly drawn) |
| 184 to 186 °C | O=C(COc1ccccc1)NC1C(=O)N2C1SCN(O)C2C(=O)OCc1ccccc1 (stereo not drawn) |

| SMILES | melting point |
| --- | --- |
| COCCCCN1C(=O)N(c2ccc(C#N)c(C(F)(F)F)c2)C(=O)C1(C)C | 80 to 81 °C |
| ClCc1cn2cc(Cl)ccc2n1 | 123 to 124 °C |
| CC1CCC(c2cccc(NC(=O)N3CCC4(CC3)OCCO4)c2)(N2CCN(c3ccccc3)CC2)CC1 (stereo not drawn) | 245 to 247 °C |
| CC(C)C(=O)NC1CCc2c(c3cc(C#N)ccc3n2Cc2ncccc2F)C1 (stereo not drawn) | 213 to 216 °C |
| CN1CCC2(C)c3cc(OC(=O)N4CCc5ccccc5C4)ccc3N(C)C12 (stereo not drawn) | 118 to 119 °C |
